From patent US5064826A, “Novel triazolo-pyrimidine derivatives” (priority 1989, dated 1991)

Key:
[1] = Antidepressant activity shown against tetrabenazine ptosis (T.P.) after p.o. administration; type: in vivo; conditions: for ED50: po, read-out: T.P. ED50; for TI (therapeutic index), T.P.: tetrabenazine ptosis, p.o. administration, TI = therapeutic index = LD50 (so in the source)
Description: (§1) Antidepressant activity of some of compounds of formulae Ia
(§2) and Ib shown against tetrabenazine ptosis (T.P.) and
(§3) analgesic activity in Writhing test (W.t.) after p.o. administration
TI = therapeutica1 index = LD50

[2] = Analgesic activity in Writhing test (W.t.) after p.o. administration; type: in vivo; conditions: for ED50: po, read-out: W.t. ED50
Description: as §1, §2, §3
TI = therapeutica1 index = LD50

Structure (SMILES)	ED50 [1]	TI (therapeutic index), T.P. [1]	ED50 [2]	TI (therapeutic index), W.t. ([2]; Writhing test, p.o. administration, TI = therapeutic index = LD50 (so in the source))
O=c1c2c([nH]c3nc(N4CCOCC4)nn13)CCCS2 [Example 21, 2-Morpholino-5,7,8,9-tetrahydrothiopyrano[3,2-d]-1,2,4-triazolo[1,5-a]pyrimidine-5(10H)-one]	5.2 mg/kg	385	–	–
CN(C)c1nc2[nH]c3c(c(=O)n2n1)SCCC3 [Example 19, 2-Dimethylamino-5,7,8,9-tetrahydrothiopyrano[3,2-d]-1,2,4-triazolo[1,5-a]pyrimidine-5(10H)-one]	2.7 mg/kg	748	–	–
CN(C)CCC=C1c2ccccc2CCc2ccccc21 [amitriptyline, 5(3-dimethylaminopropylidene)dibenz/a,d/1,4-cycloheptadiene, reference compound]	12 mg/kg	19	–	–
CC(=O)Nc1ccc(O)cc1 [paracetamol, p(acetylamino)-phenol, reference compound]	–	–	421 mg/kg	–
O=c1c2c([nH]c3nc(NC4CCCCC4)nn13)CCCS2 [Example 25, 2-Cyclohexylamino-5,7,8,9-tetrahydrothiopyrano[3,2-d]-1,2,4-triazolo[1,5-a]pyrimidine-5(10H)-one]	22.5 mg/kg	87	–	–
CC(C)(C)Nc1nc2[nH]c3c(c(=O)n2n1)SCCC3 [Example 26, 2-t-Butylamino-5,7,8,9-tetrahydrothiopyrano[3,2-d]-1,2,4-triazolo[1,5-a]pyrimidine-5(10H)-one]	–	–	355 mg/kg	5.6
